According to patent publication US20250205268A1, “TREATMENT OF VIRUSES WITH ANTIVIRAL NUCLEOSIDES” (priority 2021, published 2025):

What was measured:
SARS-CoV-2 [1] = test system: SARS-CoV-2
SARS-CoV-2 [2] = details: in vivo

CC(C)C(=O)OC[C@H]1O[C@@H](n2ccc(NO)nc2=O)[C@H](O)[C@@H]1O [Compound A, {(2R,3S,4R,5R)-3,4-dihydroxy-5-[4-(hydroxyimino)-2-oxo-3,4-dihydropyrimidin-1 (2H)-yl]oxolan-2-yl}methyl 2-methylpropanoate]
mean SARS-CoV-2 viral RNA mutation rates per 10,000 nucleotides (SARS-CoV-2 [1]; 800 mg, end of therapy): 5.9 per 10,000 nucleotides
Drug-related adverse events (SARS-CoV-2 [1]; human, in vivo): 11.0%
participants hospitalized or died through Day 29 (SARS-CoV-2 [2]): ~3%
percentage of mutations in viral RNA post-treatment at Day 5 (SARS-CoV-2 [2]): highest percentage of mutations
